Measured values published in publication PMC7738856, “Inter and intra-tumor somatostatin receptor 2 heterogeneity influences peptide receptor radionuclide therapy response” (Theranostics, 2021).

Experiments:
[1] = test system: NCl-H69 xenografted mice; parameters: species or system BALB-c/nude mice; conditions: mouse, in vivo, iv
Procedure: BALB-c/nude mice were engrafted subcutaneously with 5 x 10^6 NCI-H69 cells in 200 µl Hanks Balanced Salt Solution (HBSS) (Gibco, 14065056) containing 33,3% Matrigel (Corning, 354248). […] Mice were sacrificed by cervical dislocation and analyzed at 1 h, 1, 2, 3, 4, 5, 7, 9, 11 and 14 days post injection (p.i.). Organs were put in a gamma-counter for measurement of radioactive uptake and then fixed in formalin for 1 day at RT and stored in 70% ethanol until they were embedded in paraffin. Uninjected animals were used as control (n = 4).
The biodistribution data were analyzed to determine the kinetics of the activity in organs and tumors. The measured activity data as a function of time were fitted with single or double exponential curves using the least-square regression method with Graphpad Prism version 5 (graphpad.com). Decisions on to use a single or a double exponential curve was based on the (corrected) Akaike's information criterion. The time-activity curves were integrated over time to determine the time-integrated activity coefficients after folding in the lutetium-177 decay function. Absorbed doses in all organs and in the tumor were calculated by using the MIRD equation with the lutetium-177 S-values for a 22 g mouse Moby phantom, kindly provided by Dr Erik Larsson.

[2] = test system: NCI-H69 tumors; experiment: TUNEL assay on tumor sections; assay type: in vivo, BALB-c/nude mice; conditions: 30 MBq, n = 4; for TUNEL positive areas (average): 25 fields of view per tumor
Procedure: BALB-c/nude mice were engrafted subcutaneously with 5 x 10^6 NCI-H69 cells in 200 µl Hanks Balanced Salt Solution (HBSS) (Gibco, 14065056) containing 33,3% Matrigel (Corning, 354248). […] Organs were put in a gamma-counter for measurement of radioactive uptake and then fixed in formalin for 1 day at RT and stored in 70% ethanol until they were embedded in paraffin. Uninjected animals were used as control (n = 4). Tissue sections of 4 µm were deparaffinized and rehydrated. TUNEL assay was performed using the In Situ Cell Death Detection Kit, Fluorescein (Roche, 11684795910) according to manufacturer's instructions. 53BP1 and γH2AX focus formation was imaged with a Leica SP5 confocal microscope (Leica) using Z-stack acquisition. For tile-scan analyses a LSM700 confocal microscope (Zeiss) was used. Tiles were stitched, thresholded and quantified using ImageJ.

[3] = test system: NCI-H69 tumors; experiment: Tumor growth and survival, NCI-H69 xenografts; assay type: in vivo, BALB-c/nude mice; conditions: n = 8
Procedure: (§1) Animal experiments were approved by the Animal Welfare Committee of the Erasmus MC and were conducted in accordance with European guidelines. Animal experiments included a time series for analyses of radiobiological parameters in NCI-H69 xenografts and survival cohorts with NCI-H69 or CA20948 xenografts.
(§2) BALB-c/nude mice were engrafted subcutaneously with 5 x 10^6 NCI-H69 cells in 200 µl HBSS containing 33,3% Matrigel or with 5 x 10^6 CA20948 cells in 200 µl HBSS. Mice with NCI-H69 tumors (n = 8) were injected when tumor volumes reached 697 ± 256 mm^3 and mice with CA20948 tumors (n = 9) when tumor reached 318 ± 216 mm^3. Both groups were compared to vehicle injected counterparts (n = 8 and n = 6, respectively). Tumor volumes were measured three times per week p.i. Mice were sacrificed when tumor volumes reached the humane endpoint of 2000 mm^3. Tumors were fixed in formalin for 1 day at RT and stored in 70% ethanol until they were embedded in paraffin.

[4] = test system: CA20948 tumors; experiment: Tumor growth and survival, CA20948 xenografts; assay type: in vivo, BALB-c/nude mice; conditions: treated CA20948 bearing mice, 30 MBq, n = 9
Procedure: as §1, §2

[5] = test system: NCI-H69 tumors; experiment: 53BP1 and γH2AX foci (immunofluorescence) in tumor sections; assay type: in vivo, BALB-c/nude mice; conditions: 2 days p.i.
Procedure: BALB-c/nude mice were engrafted subcutaneously with 5 x 10^6 NCI-H69 cells in 200 µl Hanks Balanced Salt Solution (HBSS) (Gibco, 14065056) containing 33,3% Matrigel (Corning, 354248). […] Organs were put in a gamma-counter for measurement of radioactive uptake and then fixed in formalin for 1 day at RT and stored in 70% ethanol until they were embedded in paraffin. Uninjected animals were used as control (n = 4). […] Secondary antibodies used are donkey-anti-rabbit IgG Alexa Fluor 594 (Thermo Fisher, A-11078; 1:500) and donkey-anti-mouse IgG Alexa Fluor 488 (Thermo Fisher; A-11005; 1:500). For immunohistochemical stainings (IHC) Ki-67 (Abcam, ab15580; 1:200) was used. Here, the secondary antibody used is Peroxidase donkey-anti-rabbit IgG (Jackson Immunoresearch, 711-035-152; 1:2000). Cells were IF stained as previously described. Briefly, tissue sections were deparaffinized as described above. Then antigen retrieval was performed by boiling slides for 20 minutes in pH 6 (for cytoplasmic antigens) or pH 9 (for nuclear antigens) antigen retrieval buffer (DAKO) and cooling down to RT. Tissues were permeabilized with PBS+0.5% Triton (PBS(T)) at RT and blocked with 3% BSA in PBS(T) at RT. Sections were incubated with primary antibodies overnight at 4 °C in block buffer and with secondary antibodies for 60 minutes at RT. Mounting was done using Vectashield containing DAPI (Vector labs, H-1200). 53BP1 and γH2AX focus formation was imaged with a Leica SP5 confocal microscope (Leica) using Z-stack acquisition. For tile-scan analyses a LSM700 confocal microscope (Zeiss) was used. Tiles were stitched, thresholded and quantified using ImageJ. ImageJ was utilized to apply the same local threshold (default for DAPI, MaxEntropy for SST2) to all images in order to segment nuclei or quantify DAPI signal and quantify IF signal. Foci were quantified using the Find Maxima function.

[6] = test system: NCl-H69 tumors; experiment: Ki-67 immunohistochemistry of tumor sections; assay type: in vivo, BALB-c/nude mice
Procedure: BALB-c/nude mice were engrafted subcutaneously with 5 x 10^6 NCI-H69 cells in 200 μl Hanks Balanced Salt Solution (HBSS) (Gibco, 14065056) containing 33,3% Matrigel (Corning, 354248). […] Organs were put in a gamma-counter for measurement of radioactive uptake and then fixed in formalin for 1 day at RT and stored in 70% ethanol until they were embedded in paraffin. Uninjected animals were used as control (n = 4). […] Secondary antibodies used are donkey-anti-rabbit IgG Alexa Fluor 594 (Thermo Fisher, A-11078; 1:500) and donkey-anti-mouse IgG Alexa Fluor 488 (Thermo Fisher; A-11005; 1:500). For immunohistochemical stainings (IHC) Ki-67 (Abcam, ab15580; 1:200) was used. Here, the secondary antibody used is Peroxidase donkey-anti-rabbit IgG (Jackson Immunoresearch, 711-035-152; 1:2000). Tissue sections of 4 μm were deparaffinized and rehydrated. Samples were then incubated in 3% H2O2 (Honeywell, 95299) in methanol (Honeywell, 32213-2.5l) for 20 minutes at RT. Slides were washed with tap water and boiled in pH 6 Antigen Retrieval buffer for 20 minutes. Slides were incubated in blocking solution (PBS 5%BSA), following with the primary antibody in blocking solution overnight at 4 °C and with the secondary antibody in blocking solution for 90 minutes at RT. […] Quantification was performed in ImageJ by using particle analysis after.

[7] = test system: CA20948 and NCI-H69 cells; experiment: In vitro uptake of radioactivity (γ-counts) in cells; assay type: cell-based; conditions: 1 MBq/mL, 4 h incubation, n = 3 experiments
Procedure: NCI-H69 cells (ATCC) were cultured in Rosewell Park Medium Institute […] medium (RPMI-1638) (Sigma-Aldrich) supplemented with penicillin (50 units/mL), streptomycin (50 µg/mL) (Pen/Strep) and 10% fetal calf serum (FCS). CA20948 [14] cells were cultured in Dulbecco's Modified Eagle's Medium (DMEM) (Gibco) supplemented with Pen/Strep and 10% FCS. Cells were cultured at 37 °C and 5% CO2.
NCI-H69 cells were spun down on a glass slide using a cytospin centrifuge (Rotofix 32A, Hettich) for 6 minutes at 347 g at room temperature (RT). CA20948 cells were washed and fixed on coverslips. Fixation was done using 2% paraformaldehyde (PFA) for 20 minutes at RT and samples were stained according to protocol (see below).
S4. [177Lu]Lu-DO T A -TATE uptake in SST2hi g h and SST2low NCI-H69 cells. (A) lutetium- 177 uptake measured by γ-counts in NCI-H69 and CA20948 cells after 4 hours of incubation (experiment n = 3).
**p < 0.01 (B) Representative IF images of SST2 after [ 177Lu]Lu-DOT A- TATE treatment. Arrows indicate internalization and accumulation of SST 2.
S5. Additional foci quantifications in SST2hi g h and SST2low cells. γH2AX foci quantification in SST2high and SST 2lo w NC I -H69 cells 2 days after [177Lu]Lu-DOT A -TATE treatment. Error bars indicate […]

[8] = test system: NCI-H69 cells; experiment: 53BP1 and γH2AX foci in cells after in vitro treatment; assay type: cell-based
Procedure: NCI-H69 cells (ATCC) were cultured in Rosewell Park Medium Institute […] medium (RPMI-1638) (Sigma-Aldrich) supplemented with penicillin (50 units/mL), streptomycin (50 µg/mL) (Pen/Strep) and 10% fetal calf serum (FCS). CA20948 [14] cells were cultured in Dulbecco's Modified Eagle's Medium (DMEM) (Gibco) supplemented with Pen/Strep and 10% FCS. Cells were cultured at 37 °C and 5% CO2. […] NCI-H69 cells were spun down on a glass slide using a cytospin centrifuge (Rotofix 32A, Hettich) for 6 minutes at 347 g at room temperature (RT). CA20948 cells were washed and fixed on coverslips. Fixation was done using 2% paraformaldehyde (PFA) for 20 minutes at RT and samples were stained according to protocol (see below). Cells were IF stained as previously described. Briefly, tissue sections were deparaffinized as described above. Then antigen retrieval was performed by boiling slides for 20 minutes in pH 6 (for cytoplasmic antigens) or pH 9 (for nuclear antigens) antigen retrieval buffer (DAKO) and cooling down to RT. […] Tiles were stitched, thresholded and quantified using ImageJ. ImageJ was utilized to apply the same local threshold (default for DAPI, MaxEntropy for SST2) to all images in order to segment nuclei or quantify DAPI signal and quantify IF signal. Foci were quantified using the Find Maxima function.

Q: How did the “absorbed dose, kidney” value [1] turn out when `C[C@@H](O)[C@H](NC(=O)[C@@H]1CSSC[C@H](NC(=O)[C@@H](Cc2ccccc2)NC(=O)CN2CCN(CC(=O)O)CCN(CC(=O)O)CCN(CC(=O)O)CC2)C(=O)N[C@@H](Cc2ccc(O)cc2)C(=O)N[C@H](Cc2c[nH]c3ccccc23)C(=O)N[C@@H](CCCCN)C(=O)N[C@@H]([C@@H](C)O)C(=O)N1)C(=O)O` [[^177Lu]Lu-DOTA-TATE, [^177Lu]Lu-DOTA-[Tyr^3]octreotate, metal not drawn] was run?
A: The value was 3.5 ± 0.12 Gy.

Q: What about the “absorbed dose, other organs” value [1] of the same molecule?
A: The value was 0.22-1.48 Gy.

Q: And the “absorbed dose, tumor” value [1]?
A: The value was 10.08 ± 0.35 Gy.

Q: What about the “TUNEL positive areas (average)” value ([2]; 4 days p.i.) of the same molecule?
A: The value was 50%.

Q: And the “TUNEL positive areas (average)” value ([2]; 5 days p.i.)?
A: The value was 47%.

Q: What about the “fraction of TUNEL positive cells (average)” value ([2]; 14 days after treatment) of the same molecule?
A: The value was 26%.

Q: What about the “tumor volume as % of the starting volume” value ([3]; 14 days p.i., then regrowth, 30 MBq single injection) of the same molecule?
A: Its value is 71%.

Q: And the median survival ([3]; treated NCI-H69 bearing mice, 30 MBq)?
A: Its median survival is 34 days.

Q: And the median survival [4]?
A: The median survival was 54 days.

Q: What about the “γH2AX foci in SST2 high cells, treated versus non-treated SST2 high regions” value ([5]; n = 4) of the same molecule?
A: Its value is “significant increase”.

Q: What about the “γH2AX foci in SST2 high versus SST2 low cells in tumors from treated mice” value ([5]; n = 4) of the same molecule?
A: The value was “significantly higher number”.

Q: What about the “γH2AX foci in SST2 low cells, treated versus non-treated mice” value ([5]; n = 4) of the same molecule?
A: Its value is “no significant increase”.

Q: And the “increase in the number of γH2AX foci” value ([5]; versus NT controls)?
A: The value was 5 fold.

Q: What about the Ki-67 positive cells ([6]; 2 days after treatment, significantly increased) of the same molecule?
A: The Ki-67 positive cells was 74.13%.

Q: And the “Ki-67 positive (cycling) cells in non-apoptotic regions” value ([6]; all samples regardless of therapy, except 2 days after treatment)?
A: The value was 60.96 ± 5.32%.

Q: And the “uptake of radioactivity in CA20948 compared to NCI-H69 cells” value [7]?
A: The value was 3 fold.

Q: What about the “level of 53BP1 and γH2AX foci per cell versus non-treated cells” value ([8]; 1 day post treatment, 1 MBq/mL for 4 h at 37 °C) of the same molecule?
A: Its value is “significant increase”.

Q: And the “γH2AX foci in SST2 high versus SST2 low NCI-H69 cells in vitro” value ([8]; 2 days after incubation, 1 MBq/mL for 4 h)?
A: The value was “significant higher number”.
